Test results as given in ChEMBL document CHEMBL1201862, “PubChem BioAssay data set” (2004).
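Values below derive from 48-hour exposures of cells grown in 96-well plates, with endpoints linearly interpolated between the two concentrations bracketing the appropriate inhibition level. GI50 = concentration required for 50% inhibition of growth.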 The source made the active and inactive calls. No stated cut-off is given here; in the data, active = GI50 up to about 1.1 µM and inactive = higher.

What was measured:
Assay in all cases: NCI tumour cell line growth inhibition, 48 h
CCRF-CEM = test system: CCRF-CEM
EKVX = test system: EKVX
NCI-H23 = test system: NCI-H23
U-251 = test system: U-251
HOP-62 = test system: HOP-62
NCI/ADR-RES = test system: NCI/ADR-RES
A498 = test system: A498
HT-29 = test system: HT-29
HCC 2998 = test system: HCC 2998
COLO 205 = test system: COLO 205
LOX IMVI = test system: LOX IMVI
RXF 393 = test system: RXF 393
TK-10 = test system: TK-10
HCT-15 = test system: HCT-15
NCI-H226 = test system: NCI-H226
SN12C = test system: SN12C
HCT-116 = test system: HCT-116
SK-OV-3 = test system: SK-OV-3
UACC-62 = test system: UACC-62
M14 = test system: M14

SMILES | GI50 (CCRF-CEM) | GI50 (EKVX) | GI50 (NCI-H23) | GI50 (U-251) | GI50 (HOP-62) | GI50 (NCI/ADR-RES) | GI50 (A498) | GI50 (HT-29) | GI50 (HCC 2998) | GI50 (COLO 205) | GI50 (LOX IMVI) | GI50 (RXF 393) | GI50 (TK-10) | GI50 (HCT-15) [µM] | GI50 (NCI-H226) | GI50 (SN12C) | GI50 (HCT-116) | GI50 (SK-OV-3) | GI50 (UACC-62) | GI50 (M14)
O=[N+]([O-])c1ccc2c(c1)Sc1ccccc1N2 | 20.7 µM (inactive) | 11.4 µM (inactive) | 7.35 µM (inactive) | 67.3 µM (inactive) | 34.1 µM (inactive) | 14.4 µM (inactive) | 14.1 µM (inactive) | > 100 µM (inactive) | > 100 µM (inactive) | 32.9 µM (inactive) | 41.3 µM (inactive) | 37.8 µM (inactive) | > 100 µM (inactive) | 27.6 | > 100 µM (inactive) | > 100 µM (inactive) | 9.57 µM (inactive) | – | – | –
O=C1C=CC(=O)c2c1c1c(c3c2C2c4ccccc4C3c3ccccc32)C2c3ccccc3C1c1ccccc12 | 0.368 µM (active) | 3.66 µM (inactive) | 2.72 µM (inactive) | 8.71 µM (inactive) | 19.5 µM (inactive) | 5.04 µM (inactive) | 2.9 µM (inactive) | 2.11 µM (inactive) | 6.92 µM (inactive) | 1.5 µM (inactive) | 1.64 µM (inactive) | 1.59 µM (inactive) | 1.87 µM (inactive) | 1.54 | 4.71 µM (inactive) | 3.67 µM (inactive) | 1.56 µM (inactive) | 15 µM (inactive) | 2.07 µM (inactive) | 1.7 µM (inactive)
O=C1C(=O)N(c2cccc(C(F)(F)F)c2)C(=S)N1c1ccccc1 | 35.9 µM (inactive) | 30.9 µM (inactive) | 25.5 µM (inactive) | 31.6 µM (inactive) | 34.2 µM (inactive) | 31.8 µM (inactive) | 21.9 µM (inactive) | 36.5 µM (inactive) | 42 µM (inactive) | 16.4 µM (inactive) | 1.91 µM (inactive) | 27.7 µM (inactive) | 2.84 µM (inactive) | 19.1 | 24.5 µM (inactive) | 34.4 µM (inactive) | 31.7 µM (inactive) | 19.3 µM (inactive) | 14.9 µM (inactive) | –
O=C1C(=Cc2ccco2)C(=O)C2CCCCC12 (stereo unspecified) | > 100 µM (inactive) | > 100 µM (inactive) | > 100 µM (inactive) | > 100 µM (inactive) | > 100 µM (inactive) | > 100 µM (inactive) | > 100 µM (inactive) | > 100 µM (inactive) | > 100 µM (inactive) | > 100 µM (inactive) | > 100 µM (inactive) | > 100 µM (inactive) | > 100 µM (inactive) | > 100 | > 100 µM (inactive) | > 100 µM (inactive) | > 100 µM (inactive) | > 100 µM (inactive) | > 100 µM (inactive) | > 100 µM (inactive)
COc1ccc(C2=CC(C(C)=C(C(N)=O)C(N)=O)C=C(c3ccc(Br)cc3)C2)c(OC)c1 (stereo unspecified) | > 100 µM (inactive) | 44.2 µM (inactive) | > 100 µM (inactive) | > 100 µM (inactive) | > 100 µM (inactive) | > 100 µM (inactive) | > 100 µM (inactive) | > 100 µM (inactive) | > 100 µM (inactive) | > 100 µM (inactive) | > 100 µM (inactive) | > 100 µM (inactive) | > 100 µM (inactive) | > 100 | > 100 µM (inactive) | > 100 µM (inactive) | > 100 µM (inactive) | > 100 µM (inactive) | > 100 µM (inactive) | > 100 µM (inactive)
COC(=O)c1ccc(NCc2cc(O)ccc2O)cc1 | 1.51 µM (inactive) | 15.6 µM (inactive) | 15.4 µM (inactive) | 9.79 µM (inactive) | 15.9 µM (inactive) | 3.08 µM (inactive) | 16.8 µM (inactive) | 23.1 µM (inactive) | 14.4 µM (inactive) | 12.6 µM (inactive) | 10.2 µM (inactive) | 6.73 µM (inactive) | 17.5 µM (inactive) | 10.2 | 8.38 µM (inactive) | 16.5 µM (inactive) | 17.4 µM (inactive) | 14 µM (inactive) | 10.4 µM (inactive) | 18 µM (inactive)
C[C@]12CC[C@@H]3c4ccc(O)cc4CC[C@H]3[C@@H]1C/C(=C\c1ccc(C#N)cc1)C2=O | 34.4 µM (inactive) | 34.8 µM (inactive) | 38.2 µM (inactive) | 24.7 µM (inactive) | 40.4 µM (inactive) | 59.3 µM (inactive) | > 100 µM (inactive) | 24.9 µM (inactive) | 37.3 µM (inactive) | 37.2 µM (inactive) | 40.8 µM (inactive) | 14.6 µM (inactive) | 34.1 µM (inactive) | 71.8 | 37.9 µM (inactive) | 68.4 µM (inactive) | 32.9 µM (inactive) | 57 µM (inactive) | 61.1 µM (inactive) | 41.8 µM (inactive)
CCCC(=O)OC1C(C(O)CO)OC2OC(C)(C)OC21 (stereo unspecified) | – | > 100 µM (inactive) | > 100 µM (inactive) | > 100 µM (inactive) | > 100 µM (inactive) | > 100 µM (inactive) | > 100 µM (inactive) | > 100 µM (inactive) | > 100 µM (inactive) | > 100 µM (inactive) | > 100 µM (inactive) | > 100 µM (inactive) | > 100 µM (inactive) | > 100 | > 100 µM (inactive) | > 100 µM (inactive) | > 100 µM (inactive) | > 100 µM (inactive) | > 100 µM (inactive) | > 100 µM (inactive)
C[C@@H]1C[C@H]2OC(=O)[C@@]3(C)CCC[C@@](C)([C@@H]23)[C@@]1(O)CCc1ccoc1 | 74.5 µM (inactive) | > 100 µM (inactive) | > 77.8 µM (inactive) | > 100 µM (inactive) | > 100 µM (inactive) | > 100 µM (inactive) | > 100 µM (inactive) | > 95.7 µM (inactive) | > 100 µM (inactive) | > 100 µM (inactive) | > 100 µM (inactive) | > 100 µM (inactive) | > 100 µM (inactive) | 79.3 | > 61.2 µM (inactive) | > 100 µM (inactive) | > 87.7 µM (inactive) | > 100 µM (inactive) | > 62.4 µM (inactive) | > 100 µM (inactive)
CC(=O)Nc1cc2cc(NS(=O)(=O)c3ccc(Cl)c(Cl)c3)ccc2oc1=O | 53.8 µM (inactive) | 68.5 µM (inactive) | > 100 µM (inactive) | 22.6 µM (inactive) | 19.8 µM (inactive) | 34.2 µM (inactive) | 20 µM (inactive) | 35.3 µM (inactive) | 40.5 µM (inactive) | 25.5 µM (inactive) | 20 µM (inactive) | 12.5 µM (inactive) | 43.2 µM (inactive) | 90.6 | 31.8 µM (inactive) | 25.8 µM (inactive) | 28.2 µM (inactive) | – | 24.4 µM (inactive) | 64.1 µM (inactive)
O=c1c2cc(I)ccc2nc(Sc2ncccc2[N+](=O)[O-])n1Cc1ccccc1 | 0.249 µM (active) | 17.7 µM (inactive) | 24 µM (inactive) | 35.2 µM (inactive) | 70 µM (inactive) | 17.2 µM (inactive) | 24.6 µM (inactive) | 34.2 µM (inactive) | 26.7 µM (inactive) | 27.5 µM (inactive) | 34.3 µM (inactive) | 13.4 µM (inactive) | 37.2 µM (inactive) | 19.3 | 22.3 µM (inactive) | 20.6 µM (inactive) | 18.8 µM (inactive) | 63.1 µM (inactive) | 21.2 µM (inactive) | 28.3 µM (inactive)
CC(=O)NC1CCC(NC(=O)OC(C)(C)C)C(NC(=O)OC(C)(C)C)C1 (stereo unspecified) | > 100 µM (inactive) | – | > 100 µM (inactive) | > 100 µM (inactive) | > 100 µM (inactive) | > 100 µM (inactive) | > 100 µM (inactive) | > 100 µM (inactive) | > 100 µM (inactive) | > 100 µM (inactive) | > 100 µM (inactive) | > 100 µM (inactive) | > 100 µM (inactive) | > 100 | > 100 µM (inactive) | > 100 µM (inactive) | > 100 µM (inactive) | > 100 µM (inactive) | > 100 µM (inactive) | > 100 µM (inactive)
Nc1nc2c(C(=O)O)c3ccc([N+](=O)[O-])cc3c(=O)n2c2ccccc12 | 42.1 µM (inactive) | 27.9 µM (inactive) | 22.6 µM (inactive) | 27.2 µM (inactive) | 22.5 µM (inactive) | 20.5 µM (inactive) | 43.7 µM (inactive) | 34.7 µM (inactive) | 32.3 µM (inactive) | 34.8 µM (inactive) | 11.9 µM (inactive) | 14.5 µM (inactive) | – | 22.9 | 21.2 µM (inactive) | 18 µM (inactive) | 16.9 µM (inactive) | 21 µM (inactive) | 28.1 µM (inactive) | 21.4 µM (inactive)
O=Cc1ccc(Oc2c3ccccc3nc3ccccc23)cc1 | 2.71 µM (inactive) | 17.7 µM (inactive) | – | 5.27 µM (inactive) | 14.4 µM (inactive) | 10.2 µM (inactive) | 0.869 µM (active) | 2.07 µM (inactive) | 14.8 µM (inactive) | 3.42 µM (inactive) | 2.9 µM (inactive) | 7.98 µM (inactive) | 6.03 µM (inactive) | 4.16 | 4.03 µM (inactive) | 2.85 µM (inactive) | 2.14 µM (inactive) | 4.63 µM (inactive) | 0.46 µM (active) | 3.44 µM (inactive)
